The record followed here is patent publication US20180116988A1, “METHODS OF PREVENTING AND TREATING AUTOIMMUNITY” (THE REGENTS OF THE UNIVERSITY OF COLORADO a body corporate, priority 2015, published 2018).

Read-outs that look alike come from different tables or passages of the source.

One data set concerns the target T1, DQ8 (Homo sapiens, UniProt P01909+P01920, A209T/A45G/C70Q/D89A/E183D/E77G/F237L/G63E/H199R/I129T/K197E/L178F/L74F/L98V/N214S/Q57E/Q76R/S185I/S97I/T49S/V73L/Y58L).
T1 construct: endogenous in cells; host or cells: blood cells of DQ8-positive human T1D subjects treated with methyldopa
Description: DQ8-stimulated IL-2 T cell response in T1D patients treated with methyldopa (open label phase 1b dose escalation study). The data set is classed as in vivo. Particulars: for reduction in DQ8-stimulated IL-2 T cell response: DQ8 positive T1D subjects. The source says: (§1) Human leukocyte antigen (HLA) alleles confer significant genetic risk for type 1 diabetes (T1D) with recent studies implicating DQ8 in its pathogenesis, and DQ8 antigen presentation can be inhibited with methyldopa in animal models. In this pilot study, the inventors evaluated methyldopa treatment in 10 DQ8 positive human subjects with T1D, ages 18-46 years (mean 27) with less than 2 years of diabetes duration (mean 3 months). This was an open label phase 1b dose escalation study.

The nature of data set [1]: Glucose control in T1D patients treated with methyldopa over 3 months. The data set is classed as in vivo, human.
From the text: as §1

A further data set deals with DR4. Description: DR4 T cell response in T1D patients treated with methyldopa. The data set is classed as in vivo, human. Particulars: T1D subjects treated with varying doses of methyldopa.
From the text: as §1

Details of data set [2]: species or system human. Particulars: in vivo.
From the text: as §1

T1 sequence (P01920 33-261 A45G/Y58L/E77G/D89A/H199R/N214S, other chains not shown): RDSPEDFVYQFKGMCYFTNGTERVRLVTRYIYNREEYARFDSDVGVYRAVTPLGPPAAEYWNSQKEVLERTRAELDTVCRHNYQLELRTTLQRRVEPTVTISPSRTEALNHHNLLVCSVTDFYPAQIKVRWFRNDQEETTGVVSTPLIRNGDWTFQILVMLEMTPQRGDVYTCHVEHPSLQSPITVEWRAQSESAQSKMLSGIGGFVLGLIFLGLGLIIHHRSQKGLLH

Take `C[C@](N)(Cc1ccc(O)c(O)c1)C(=O)O` [methyldopa, α-Methyl-3,4-dihydroxyphenylalanine]: the “DQ8-stimulated IL-2 T cell response after stopping therapy” value at DQ8 (6 weeks after stopping therapy) is reported as “returned to normal”. Besides, the reduction in DQ8-stimulated IL-2 T cell response was determined as 32% on DQ8 (at 1 week of dose escalation) and 39% on DQ8 (at 3 weeks of dose escalation). The glycemic control result in data set [1] is on record as “good glycemic control”. The “DR4 T cell responses” value with DR4 is “minimally effected”. The subjects tolerating dosage is listed as 9/10 in data set [2] (human) and “All subjects tolerated” in data set [2]. The “serious adverse events (hypotension, DKA, or hypoglycemia)” value in data set [2] is on record as “No serious adverse events”.
